Test [1] concerns the target T1, Beta Lactamase (Pseudomonas aeruginosa, UniProt Q932Y6). In words: BLA reporter interference, concentration series – BLA reporter cells, FRET fluorescence, artefact control for TLR9-MyD88 binding inhibitor project, dose response (AID 588341).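 Further: cell based assay in CHO-K1 cells stably expressing beta-lactamase.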 The test is classed as cell-based.
For test [2], the target named is T2, Sphingosine 1-phosphate receptor 4 (Homo sapiens, UniProt O95977).
T2 sequence (O95977 whole entry): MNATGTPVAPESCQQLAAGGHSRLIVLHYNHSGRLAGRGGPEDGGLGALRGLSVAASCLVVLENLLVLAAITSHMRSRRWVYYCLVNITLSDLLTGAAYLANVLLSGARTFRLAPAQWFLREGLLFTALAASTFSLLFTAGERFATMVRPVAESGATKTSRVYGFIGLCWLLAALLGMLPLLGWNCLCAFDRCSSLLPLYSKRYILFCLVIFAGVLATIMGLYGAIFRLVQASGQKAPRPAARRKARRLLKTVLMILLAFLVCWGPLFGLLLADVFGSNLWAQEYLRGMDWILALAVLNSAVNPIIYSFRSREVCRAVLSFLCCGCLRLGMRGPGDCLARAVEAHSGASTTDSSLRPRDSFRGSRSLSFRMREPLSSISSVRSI
In words: Fluorescence dose response cell-based high throughput screening assay for antagonists of the Sphingosine 1-Phosphate Receptor 4 (S1P4). [Related pubchem assays: 1524 (Confirmation in triplicates.), 1510 (Primary screen.)]. The test is classed as functional.

In test [3] the target is T1, Beta Lactamase. The experiment in a line: BLA reporter interference, concentration series – BLA reporter cells, FRET fluorescence, artefact control for NOD2-RIPK2 interaction inhibitor project, dose response (AID 651552). The test is classed as functional, cell-based.
Test [4] addresses T3, Exodeoxyribonuclease V (Escherichia coli (strain K12), UniProt P04993+P07648+P08394).
T3 sequence (P04993 whole entry): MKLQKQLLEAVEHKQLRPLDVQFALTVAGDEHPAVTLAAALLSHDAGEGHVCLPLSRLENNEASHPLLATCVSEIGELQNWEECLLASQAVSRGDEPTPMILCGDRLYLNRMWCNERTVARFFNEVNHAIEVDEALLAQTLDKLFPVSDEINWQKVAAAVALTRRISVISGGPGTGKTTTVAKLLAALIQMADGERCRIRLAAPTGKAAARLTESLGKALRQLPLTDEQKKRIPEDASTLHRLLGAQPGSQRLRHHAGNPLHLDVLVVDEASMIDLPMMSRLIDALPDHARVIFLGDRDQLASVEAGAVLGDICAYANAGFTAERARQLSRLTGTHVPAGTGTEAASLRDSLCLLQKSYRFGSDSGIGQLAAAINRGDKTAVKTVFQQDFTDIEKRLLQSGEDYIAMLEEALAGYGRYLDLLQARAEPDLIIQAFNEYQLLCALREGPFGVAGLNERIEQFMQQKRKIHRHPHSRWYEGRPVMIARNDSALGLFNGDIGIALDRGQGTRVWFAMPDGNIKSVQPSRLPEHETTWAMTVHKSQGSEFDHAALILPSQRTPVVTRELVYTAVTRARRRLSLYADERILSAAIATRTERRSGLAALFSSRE
T3 sequence (P07648 whole entry): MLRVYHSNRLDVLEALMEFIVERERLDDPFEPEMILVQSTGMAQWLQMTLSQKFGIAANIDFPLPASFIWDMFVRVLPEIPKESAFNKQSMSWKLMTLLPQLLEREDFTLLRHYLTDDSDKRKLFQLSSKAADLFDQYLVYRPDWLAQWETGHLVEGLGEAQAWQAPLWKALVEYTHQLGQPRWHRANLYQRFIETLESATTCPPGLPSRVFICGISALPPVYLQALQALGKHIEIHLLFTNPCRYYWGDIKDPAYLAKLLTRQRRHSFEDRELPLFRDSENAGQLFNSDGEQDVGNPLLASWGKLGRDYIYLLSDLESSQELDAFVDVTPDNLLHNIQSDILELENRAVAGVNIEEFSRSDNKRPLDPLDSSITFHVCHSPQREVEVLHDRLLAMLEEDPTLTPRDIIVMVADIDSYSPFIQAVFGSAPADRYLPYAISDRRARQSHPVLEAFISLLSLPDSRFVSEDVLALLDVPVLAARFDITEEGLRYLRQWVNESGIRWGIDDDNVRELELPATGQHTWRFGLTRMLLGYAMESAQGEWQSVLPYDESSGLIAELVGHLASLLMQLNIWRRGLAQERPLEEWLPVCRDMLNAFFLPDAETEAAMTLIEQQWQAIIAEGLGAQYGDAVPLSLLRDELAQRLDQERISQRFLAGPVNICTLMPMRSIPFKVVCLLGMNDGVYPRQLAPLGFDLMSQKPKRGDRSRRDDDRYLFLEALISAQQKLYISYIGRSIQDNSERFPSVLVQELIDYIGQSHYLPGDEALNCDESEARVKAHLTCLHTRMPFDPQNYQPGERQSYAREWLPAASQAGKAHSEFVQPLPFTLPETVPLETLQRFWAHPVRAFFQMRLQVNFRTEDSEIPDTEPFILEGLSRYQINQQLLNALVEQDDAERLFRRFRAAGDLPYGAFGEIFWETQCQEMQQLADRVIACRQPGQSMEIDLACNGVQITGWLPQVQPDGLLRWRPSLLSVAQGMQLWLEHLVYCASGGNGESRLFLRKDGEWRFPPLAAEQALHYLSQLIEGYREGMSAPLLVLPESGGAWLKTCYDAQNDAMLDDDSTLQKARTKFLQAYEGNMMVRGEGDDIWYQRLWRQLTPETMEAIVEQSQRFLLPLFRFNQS
T3 sequence (P08394 whole entry): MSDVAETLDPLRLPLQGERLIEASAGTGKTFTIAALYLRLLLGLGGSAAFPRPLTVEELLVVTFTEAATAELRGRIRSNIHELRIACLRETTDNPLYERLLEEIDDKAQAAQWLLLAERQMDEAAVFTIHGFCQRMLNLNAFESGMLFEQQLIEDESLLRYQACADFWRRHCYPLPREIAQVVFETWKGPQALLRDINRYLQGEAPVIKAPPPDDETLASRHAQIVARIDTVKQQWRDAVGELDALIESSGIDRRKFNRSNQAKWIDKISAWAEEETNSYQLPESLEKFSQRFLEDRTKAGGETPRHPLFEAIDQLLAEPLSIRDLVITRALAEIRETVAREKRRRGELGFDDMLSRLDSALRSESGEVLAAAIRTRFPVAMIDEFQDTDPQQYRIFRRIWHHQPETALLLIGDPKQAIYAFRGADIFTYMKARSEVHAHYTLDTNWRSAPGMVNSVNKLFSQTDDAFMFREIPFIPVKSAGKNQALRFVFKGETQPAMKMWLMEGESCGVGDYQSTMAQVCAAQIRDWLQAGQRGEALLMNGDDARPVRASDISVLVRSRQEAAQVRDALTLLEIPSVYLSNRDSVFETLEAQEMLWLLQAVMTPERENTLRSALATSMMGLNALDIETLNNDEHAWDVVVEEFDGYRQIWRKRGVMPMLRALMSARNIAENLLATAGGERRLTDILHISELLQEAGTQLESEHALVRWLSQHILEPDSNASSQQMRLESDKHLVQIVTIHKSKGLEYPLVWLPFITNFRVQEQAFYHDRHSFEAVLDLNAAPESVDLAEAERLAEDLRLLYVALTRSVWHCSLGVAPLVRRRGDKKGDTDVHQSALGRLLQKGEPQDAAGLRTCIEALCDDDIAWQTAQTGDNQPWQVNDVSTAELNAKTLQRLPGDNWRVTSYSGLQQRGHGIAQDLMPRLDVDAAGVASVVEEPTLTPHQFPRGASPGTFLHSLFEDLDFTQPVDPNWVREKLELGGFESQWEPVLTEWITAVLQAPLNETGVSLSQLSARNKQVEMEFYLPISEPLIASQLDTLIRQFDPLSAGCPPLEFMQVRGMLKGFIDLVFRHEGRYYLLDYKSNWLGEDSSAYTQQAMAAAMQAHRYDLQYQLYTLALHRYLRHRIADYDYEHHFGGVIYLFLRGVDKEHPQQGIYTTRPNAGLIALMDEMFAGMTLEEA
The experiment in a line: RecBCD inhibition via phage-restricted bacterial growth – absorbance, V66 E. coli, mutant T4 phage, counter-screen for AddAB inhibitor project, dose response (AID 492957). Format: functional, cell-based, Escherichia coli str. K-12 substr. MG1655. In general terms: The purpose of a counterscreen is to sort out artefacts and off-target activity.

Test [5] addresses Sphingosine 1-phosphate receptor 1 (Homo sapiens, UniProt P21453). Format: functional.
The target of test [6] is Keap1/Nrf2 (Homo sapiens, UniProt Q14145). The experiment in a line: disruptors of Keap1 binding to Nrf2 peptide – biochemical, fluorescence polarization, cherry-picked samples, dose response (AID 588683). On the technique in general: Polarisation of emitted light reports the rotation of a fluorescent probe.
Sequence of Keap1/Nrf2 (Q16236 whole entry): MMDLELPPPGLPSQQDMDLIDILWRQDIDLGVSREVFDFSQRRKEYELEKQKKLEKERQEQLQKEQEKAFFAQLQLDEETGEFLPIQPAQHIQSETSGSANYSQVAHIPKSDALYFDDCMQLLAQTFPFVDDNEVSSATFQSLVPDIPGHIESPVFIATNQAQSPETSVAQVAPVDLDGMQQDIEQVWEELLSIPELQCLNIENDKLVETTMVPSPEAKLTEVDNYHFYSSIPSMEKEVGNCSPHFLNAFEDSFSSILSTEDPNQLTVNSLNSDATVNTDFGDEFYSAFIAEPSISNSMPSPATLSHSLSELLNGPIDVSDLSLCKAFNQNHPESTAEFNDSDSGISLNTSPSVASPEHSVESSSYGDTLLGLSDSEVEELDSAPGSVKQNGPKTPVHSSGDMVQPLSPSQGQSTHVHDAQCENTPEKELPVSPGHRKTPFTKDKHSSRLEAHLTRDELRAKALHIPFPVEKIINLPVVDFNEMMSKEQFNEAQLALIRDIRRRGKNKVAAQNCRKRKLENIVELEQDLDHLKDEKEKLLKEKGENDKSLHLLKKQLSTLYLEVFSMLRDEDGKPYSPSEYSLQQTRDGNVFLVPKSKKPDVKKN
Sequence of Keap1/Nrf2 (Q14145 whole entry): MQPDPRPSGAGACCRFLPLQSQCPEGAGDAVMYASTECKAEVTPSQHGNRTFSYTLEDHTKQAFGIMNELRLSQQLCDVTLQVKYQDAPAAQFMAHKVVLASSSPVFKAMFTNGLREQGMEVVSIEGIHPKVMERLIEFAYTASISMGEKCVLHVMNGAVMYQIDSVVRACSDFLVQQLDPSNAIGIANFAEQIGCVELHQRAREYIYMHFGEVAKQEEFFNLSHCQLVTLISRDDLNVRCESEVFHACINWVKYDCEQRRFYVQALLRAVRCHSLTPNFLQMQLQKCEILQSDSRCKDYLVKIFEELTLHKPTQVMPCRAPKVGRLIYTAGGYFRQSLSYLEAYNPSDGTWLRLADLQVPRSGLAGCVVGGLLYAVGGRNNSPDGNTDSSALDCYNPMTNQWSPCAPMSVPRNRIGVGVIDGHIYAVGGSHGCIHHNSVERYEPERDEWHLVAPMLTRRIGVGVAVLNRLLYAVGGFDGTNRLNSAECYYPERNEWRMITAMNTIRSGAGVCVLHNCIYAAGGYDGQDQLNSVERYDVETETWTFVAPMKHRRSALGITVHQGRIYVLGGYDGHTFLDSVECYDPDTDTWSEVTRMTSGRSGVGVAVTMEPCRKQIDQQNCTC
The target of test [7] is Luciferin 4-monooxygenase (Photinus pyralis, UniProt P08659). The experiment in a line: Counter Screen for Luciferase-based Assay Positives. [Related pubchem assays: 620, 618, 411 ].
Sequence of Luciferin 4-monooxygenase (P08659 whole entry): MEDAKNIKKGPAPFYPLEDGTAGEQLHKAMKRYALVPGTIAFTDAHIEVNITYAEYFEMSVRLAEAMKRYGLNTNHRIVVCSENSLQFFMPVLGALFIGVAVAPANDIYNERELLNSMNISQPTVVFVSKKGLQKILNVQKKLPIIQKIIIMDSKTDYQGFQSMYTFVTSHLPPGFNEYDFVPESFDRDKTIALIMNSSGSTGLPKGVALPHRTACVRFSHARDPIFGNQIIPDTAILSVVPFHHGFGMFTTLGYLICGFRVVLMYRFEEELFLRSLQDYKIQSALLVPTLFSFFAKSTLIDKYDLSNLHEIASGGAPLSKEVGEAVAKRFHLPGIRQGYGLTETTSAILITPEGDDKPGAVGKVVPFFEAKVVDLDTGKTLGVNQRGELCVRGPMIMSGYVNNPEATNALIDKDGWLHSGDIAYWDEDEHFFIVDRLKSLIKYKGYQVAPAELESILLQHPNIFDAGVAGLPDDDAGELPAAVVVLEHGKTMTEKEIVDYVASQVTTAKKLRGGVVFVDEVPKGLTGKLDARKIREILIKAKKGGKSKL
For test [8], the system named is HT-1080. In words: HT1080 cell viability loss – fluorescence readout (AID 620). The test is classed as functional, cell-based. The settings on record: Homo sapiens.
In test [9] the target is T4, Alkaline phosphatase, tissue-nonspecific isozyme (Homo sapiens, UniProt P05186).
T4 sequence (P05186 whole entry): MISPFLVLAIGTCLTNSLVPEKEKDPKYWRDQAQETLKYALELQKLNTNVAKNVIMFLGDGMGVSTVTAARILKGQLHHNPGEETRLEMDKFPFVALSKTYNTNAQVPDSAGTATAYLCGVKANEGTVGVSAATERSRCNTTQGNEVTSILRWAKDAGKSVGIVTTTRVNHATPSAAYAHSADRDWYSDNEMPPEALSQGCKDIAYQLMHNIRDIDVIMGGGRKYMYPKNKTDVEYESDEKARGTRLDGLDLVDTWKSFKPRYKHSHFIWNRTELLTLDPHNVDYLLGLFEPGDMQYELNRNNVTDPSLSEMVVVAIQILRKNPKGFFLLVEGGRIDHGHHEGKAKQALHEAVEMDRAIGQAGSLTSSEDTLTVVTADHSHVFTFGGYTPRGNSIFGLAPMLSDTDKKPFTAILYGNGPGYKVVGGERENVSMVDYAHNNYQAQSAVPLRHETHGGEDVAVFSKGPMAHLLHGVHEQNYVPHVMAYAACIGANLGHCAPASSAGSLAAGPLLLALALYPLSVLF

A short description of test [10]: HGIII-sPLA2 enzyme inhibition potency – biochemical, QFRET, IC50, dose response (AID 743457).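 Further: green fluorescence rise as the enzyme cleaves BODIPY PC-A2 in liposomes.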
The subject of test [11] is Vero. In words: host cell viability loss, Vero E6 – synthesized analogs, cytotoxicity control for West Nile virus antiviral project, SAR follow-up (AID 2244). The test is classed as functional. The settings on record: Chlorocebus sabaeus.
Test [12] relates to Streptococcus. In words: Luminescence Microorganism-Based Dose Response Follow up to Identify Compounds Cytotoxic to Streptococcus. [Related pubchem assays: 1677 (Project Summary), 1915, 1914, 1902 (Retest at Dose), 1900 (Counter Screen), 1662 (Primary HTS)]. Format: functional, organism-based.

Calls of active or inactive are those of the source. A value given as a limit tells only on which side of the number the result lay.

T1 sequence (Q932Y6 whole entry): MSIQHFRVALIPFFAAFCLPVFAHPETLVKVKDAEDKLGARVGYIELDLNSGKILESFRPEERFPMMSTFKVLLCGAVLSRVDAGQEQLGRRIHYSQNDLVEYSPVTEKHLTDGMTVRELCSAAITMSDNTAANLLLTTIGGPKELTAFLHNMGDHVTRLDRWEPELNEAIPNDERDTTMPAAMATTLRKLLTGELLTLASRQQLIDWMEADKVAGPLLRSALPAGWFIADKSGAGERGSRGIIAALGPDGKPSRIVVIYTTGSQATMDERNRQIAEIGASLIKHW
Sequence of Sphingosine 1-phosphate receptor 1 (P21453 whole entry): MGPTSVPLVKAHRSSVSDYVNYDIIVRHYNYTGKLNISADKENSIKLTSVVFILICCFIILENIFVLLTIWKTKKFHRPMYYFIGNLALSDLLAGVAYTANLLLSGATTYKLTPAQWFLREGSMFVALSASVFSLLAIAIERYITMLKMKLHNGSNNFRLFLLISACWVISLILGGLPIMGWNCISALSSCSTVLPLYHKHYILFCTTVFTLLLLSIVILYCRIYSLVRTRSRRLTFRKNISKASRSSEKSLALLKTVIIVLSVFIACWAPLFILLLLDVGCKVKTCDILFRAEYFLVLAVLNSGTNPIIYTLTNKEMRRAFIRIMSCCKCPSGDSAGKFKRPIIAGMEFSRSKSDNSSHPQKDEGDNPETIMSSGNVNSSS

Usually IC50 stands for the midpoint of a concentration-inhibition curve. Usually AC50 stands for the concentration giving half of the maximal activity seen. For the compound `C=CCn1c(Sc2ncc([N+](=O)[O-])s2)n[nH]c1=O`, the IC50 is > 49.8 µM (inactive) in test [1]; 2.63 µM (active) in [2]; 42 µM (inactive) in test [3]; 77.2 µM (inactive) in [4]; 18.1 µM (not active) in test [5]. For the same compound, the AC50 in test [6] was > 52 µM (inactive).
The EC50 is the concentration giving half of the maximal effect. As to `COc1ccc(-c2cc(C(=O)O)c(C)o2)cc1OC`, the values for the EC50 in test [7] and in [8] were 4.68 µM (active) and > 50 µM (not active), respectively.
Turning to `Cc1ccc(NC(S)=NNC(=O)c2nn(C)cc2Cl)cc1`, in test [9], the EC50 is 61 µM (not active). The IC50 in [10] is > 122 µM (inactive).
Broadly, the CC50 is the concentration at which the toxic effect on the cells reaches its halfway point. Regarding `COc1ccc(-c2csc(NC(=O)c3ccccc3Cl)n2)cc1`, in [11], the CC50 was > 40 µM (active).
Consider `O=C(c1ccc(OC(F)(F)F)cc1)n1c2ccccc2c2ccccc21`, for which the EC50 in test [12] is on record as > 500 µM (not active).

Values taken from ChEMBL document CHEMBL1201862, “PubChem BioAssay data set” (2004).
